Assay results published in US20250041249A1, “METHOD OF TREATING LIVER STEATOSIS WITH BIOAVAILABLE FORMULATION OF OLEOYLETHANOLAMIDE” (THE REGENTS OF THE UNIVERSITY OF CALIFORNIA, priority 2021, published 2025).

Columns and labels:
[1] = tested on: liver inflammation and fibrosis genes; test: Subchronic i.p. OEA in HFD-fed mice: liver gene transcription (real time PCR); assay type: in vivo, mouse; settings: OEA 5 mg/kg i.p. once daily 6 weeks, versus vehicle controls
Experimental: 18-week-old mice were randomized into two groups; one received standard chow (6.5% kcal fat, Envigo 2020X, Livermore, CA) and the other a high-fat diet (HFD, 60% kcal fat, D12492, Research Diets, New Brunswick, NJ). Both were available ad libitum for 11 weeks. Body weight and food intake were recorded three times per week. Animals from both groups were randomly assigned to three cohorts: a) free feeding, b) fasting (from 6:00 pm to 12:00 pm on the following day) and c) fasting/refeeding (2 hr access to food after fasting). Mice assigned to the fasting and fasting/refeeding groups were housed in bottom-wired cages to prevent coprophagia.
OEA was dissolved in a vehicle of 95% saline/5% Tween80 (v/v) shortly before experiments. It was administered by intraperitoneal (i.p.) injection at 5 mg/kg in a volume of 10 ml/kg.
We extracted total RNA from liver using TRIzol™ reagent (Thermo Fisher Scientific, Waltham, MS) and purified it with the PureLink™ RNA Mini Kit (Invitrogen, Waltham, MS) as directed by the supplier. Prior to purification, samples were passed through a gDNA Eliminator spin column (Qiagen, Germantown, CA). We quantified RNA using NanoDrop 2000/2000-c spectrophotometer (Thermo Fisher Scientific). cDNA was synthesized from […] of total RNA using the High-Capacity cDNA RT Kit with RNase inhibitor (Applied BioSystems, Foster City, CA) following manufacturer's instructions. First-strand cDNA was amplified using TaqMan™ Universal PCR Master Mixture (Thermo Fisher Scientific) Real-time PCR reactions were performed in 96-well plates using the CFX96™ Real-Time System (Bio-Rad, Hercules, CA). The thermal cycling conditions were as follows: initial denaturation set at 95° C. for 10 min, followed by 45 cycles, where each cycle was performed at 95° C. for 30 s followed by 55° C. for 60 s. ΔCt values were calculated using the geometric mean of three different housekeeping genes, and the relative fold changes over control groups (chow-free feed) were calculated by the 2-44Ct method. Real-time PCR primers and fluorogenic probes were purchased from Applied Biosystems (TaqMan (R) Gene Expression Assays, Foster City, CA). We used TaqMan gene expression assays for mouse Actb (Mm00607939_s1), Hprt (Mm00446968_m1), Gapdh (Mm99999915_g1), Tnfa (Mm00443258_m1), Il1b (Mm00434228_m1), Tgfb1 (Mm_01178820_m1), Ccl2 (Mm_00441242_m1) Hmox1 (Mm_00516005_m1), Col1a1 (Mm_00801666_g1), Nqo1 (Mm_01135606_m1), Nrf1 (Mm01135606_m1), Faah (Mm_00515684_m1), and NapepId (Mm_00724596_m1) (Applied Biosystems, Foster City, CA).
Diet-induced obesity is associated with the development of liver steatosis and fibrosis. We asked whether OEA supplementation might correct these alterations in HFD-fed mice, which are defective in endogenous OEA production. We exposed mice to HFD for 5 weeks, randomized them into two groups, and treated them either with OEA (5 mg/kg, once daily) or vehicle for 6 additional weeks of HFD exposure. As expected, OEA administration reduced body weight gain and lowered circulating total cholesterol and liver transaminase levels (Table 2, FIG. 5). These effects were accompanied by improvement in hepatic lipid profile (FIG. 3). […] Transcription of other relevant genes (Nrf1, Tnfa, Tgf1b, Nqo1) was not affected (FIG. 3h-j).

[2] = tested on: HFD-fed mice; test: Subchronic i.p. OEA in HFD-fed mice: body weight gain and blood chemistry; assay type: in vivo, mouse; settings: OEA 5 mg/kg i.p. once daily for 6 weeks, mean ± S.E.M
Experimental: 18-week-old mice were randomized into two groups; one received standard chow (6.5% kcal fat, Envigo 2020X, Livermore, CA) and the other a high-fat diet (HFD, 60% kcal fat, D12492, Research Diets, New Brunswick, NJ). Both were available ad libitum for 11 weeks. Body weight and food intake were recorded three times per week. Animals from both groups were randomly assigned to three cohorts: a) free feeding, b) fasting (from 6:00 pm to 12:00 pm on the following day) and c) fasting/refeeding (2 hr access to food after fasting). Mice assigned to the fasting and fasting/refeeding groups were housed in bottom-wired cages to prevent coprophagia. OEA was dissolved in a vehicle of 95% saline/5% Tween80 (v/v) shortly before experiments. It was administered by intraperitoneal (i.p.) injection at 5 mg/kg in a volume of 10 ml/kg. A comprehensive blood chemistry panel was performed at Antech Diagnostics (Irvine, CA). Diet-induced obesity is associated with the development of liver steatosis and fibrosis. We asked whether OEA supplementation might correct these alterations in HFD-fed mice, which are defective in endogenous OEA production. We exposed mice to HFD for 5 weeks, randomized them into two groups, and treated them either with OEA (5 mg/kg, once daily) or vehicle for 6 additional weeks of HFD exposure. As expected, OEA administration reduced body weight gain and lowered circulating total cholesterol and liver transaminase levels (Table 2, FIG. 5). These effects were accompanied by improvement in hepatic lipid profile (FIG. 3). […] Transcription of other relevant genes (Nrf1, Tnfa, Tgf1b, Nqo1) was not affected (FIG. 3h-j).

[3] = tested on: liver of HFD-fed mice; test: Subchronic i.p. OEA in HFD-fed mice: liver lipid accumulation (Oil Red O, BODIPY, triglyceride kit); assay type: in vivo, mouse; settings: OEA 5 mg/kg i.p. once daily 6 weeks, versus vehicle controls
Experimental: 18-week-old mice were randomized into two groups; one received standard chow (6.5% kcal fat, Envigo 2020X, Livermore, CA) and the other a high-fat diet (HFD, 60% kcal fat, D12492, Research Diets, New Brunswick, NJ). Both were available ad libitum for 11 weeks. Body weight and food intake were recorded three times per week. Animals from both groups were randomly assigned to three cohorts: a) free feeding, b) fasting (from 6:00 pm to 12:00 pm on the following day) and c) fasting/refeeding (2 hr access to food after fasting). Mice assigned to the fasting and fasting/refeeding groups were housed in bottom-wired cages to prevent coprophagia. OEA was dissolved in a vehicle of 95% saline/5% Tween80 (v/v) shortly before experiments. It was administered by intraperitoneal (i.p.) injection at 5 mg/kg in a volume of 10 ml/kg. Liver triglycerides were quantified using a colorimetric assay kit (Cayman Chemicals). Briefly, ˜30 mg of right liver lobe were mixed with 0.2 mL of assay buffer and processed following manufacturer's instructions. Oil Red O Staining: We embedded liver samples in a mold, cut them into 7-μm thick sections with a cryostat and fixed them with 4% paraformaldehyde (PFA) for 15 min. After fixation, we immersed the sections in phosphate-buffered saline (PBS) for 2 min, placed them in isopropanol (60%) for 2 min, and incubated them with Oil Red O (60% in isopropanol) for 30 min. […]

[4] = biological target: T1, PPAR-α (Homo sapiens, UniProt Q07869); settings: PPAR-α agonist; read-out: median effective concentration, EC50; cited from earlier work
T1 sequence (Q07869 1-468): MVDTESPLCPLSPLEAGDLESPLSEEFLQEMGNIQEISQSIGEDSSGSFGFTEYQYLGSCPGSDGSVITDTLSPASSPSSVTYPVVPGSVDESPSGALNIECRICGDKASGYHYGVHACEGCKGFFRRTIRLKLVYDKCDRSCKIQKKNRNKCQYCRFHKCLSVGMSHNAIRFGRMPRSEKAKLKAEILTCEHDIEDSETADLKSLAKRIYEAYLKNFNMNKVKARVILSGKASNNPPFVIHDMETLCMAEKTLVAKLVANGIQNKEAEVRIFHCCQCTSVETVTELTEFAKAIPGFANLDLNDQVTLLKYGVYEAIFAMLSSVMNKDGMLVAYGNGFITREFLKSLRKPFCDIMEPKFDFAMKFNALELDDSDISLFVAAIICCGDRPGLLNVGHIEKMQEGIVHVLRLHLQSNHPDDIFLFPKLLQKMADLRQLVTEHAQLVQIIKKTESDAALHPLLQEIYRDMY

[5] = biological target: T1, PPAR-α; settings: read-out: affinity constant, KD; cited from earlier work

## CCCCCCCC/C=C\CCCCCCCC(=O)NCCO [OEA, oleoylethanolamide]
[1]
  liver transcription of C-C Motif Chemokine Ligand 2 (Ccl2): attenuated
  liver transcription of Nqo1: not affected
  liver transcription of Nrf1: not affected
  liver transcription of Tgf1b: not affected
  liver transcription of Tnfa: not affected
  liver transcription of collagen type I a1 (Col1a1): attenuated
  liver transcription of heme oxygenase 1 (Hmox1): enhanced
  liver transcription of interleukin 1B (1/1b): attenuated
[2]
  A Body weight: 2.27 ± 0.5 g
  ALT (SPGT): 45.4 ± 6.9 IU/L
  AST (SGOT): 86.1 ± 9.9 IU/L
  Cholesterol: 173.6 ± 7.6 mg/dL
  Glucose: 250.5 ± 19.1 mg/dL
  Triglyceride: 81.0 ± 4.9 mg/dL
[3]
  liver lipid content (Oil Red O and BODIPY staining of liver sections): reduced
  liver triglyceride content: lower
[4]
  EC50: ~120 nM
[5]
  Kd: ~40 nM
